Assay results: ChEMBL document CHEMBL1201862, “PubChem BioAssay data set” (2004)
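Where inhibition never reached the appropriate level, the endpoint shown equals the highest concentration tested. Otherwise, values were interpolated linearly from a five-concentration, 48-hour dose response in 96-well plates. GI50 is the concentration that inhibits growth by half.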 Activity calls are given as the source filed them. Rule as the data show it: active = GI50 up to about 1.1 µM and inactive = higher.

Columns and labels:
Experiment in all cases: NCI tumour cell line growth inhibition, 48 h
DLD-1 = system: DLD-1
SNB-78 = system: SNB-78
HOP-18 = system: HOP-18
XF498 = system: XF498
DMS-273 = system: DMS-273
RXF 631 = system: RXF 631
T47D = system: T47D
MDA-N = system: MDA-N
BT-549 = system: BT-549

Measured: GI50

CCCCCOc1ccc(/C=N\c2ccc(CCc3ccc(/N=C/c4ccc(OCCCCC)cc4)cc3)cc2)cc1
inactive: DLD-1 > 100 µM | SNB-78 > 100 µM | HOP-18 > 100 µM | XF498 > 100 µM | DMS-273 > 100 µM

Cc1ccccc1NC(=O)C(=O)CC(=O)C1CCOC1=O (stereo not given)
inactive: DLD-1 > 100 µM | SNB-78 > 100 µM | HOP-18 7.29 µM | XF498 > 100 µM | DMS-273 > 100 µM

Cn1ccnc1C(c1nccn1C)C(C)(C)[N+](=O)[O-]
inactive: DLD-1 > 100 µM | SNB-78 > 100 µM | RXF 631 > 100 µM | XF498 > 100 µM | DMS-273 > 100 µM

CCOC(=O)C(=O)CC(=O)C(Br)C(Br)c1ccc(Cl)cc1 (stereo not given)
inactive: DLD-1 18.3 µM | SNB-78 44.2 µM | RXF 631 > 100 µM | DMS-273 70.5 µM

O=C(CCN1CCCCC1)C(=Cc1ccccc1)C(=O)CCN1CCCCC1
inactive: DLD-1 20 µM | SNB-78 > 62.5 µM | HOP-18 > 10 µM | XF498 > 100 µM | DMS-273 > 100 µM

CC1=C(C(=O)CC(=O)C(=O)Nc2ccc(Cl)cc2C)Sc2ccccc2N1
inactive: DLD-1 > 100 µM | SNB-78 > 100 µM | HOP-18 > 100 µM | RXF 631 > 100 µM | XF498 > 100 µM | DMS-273 > 100 µM

COc1ccc(/C=C(\NC(=O)c2ccccc2)c2nc3ccccc3[nH]2)cc1OC
inactive: DLD-1 > 100 µM | SNB-78 > 100 µM | HOP-18 > 100 µM | RXF 631 > 100 µM | XF498 > 100 µM

O=C1c2ccccc2C(=O)N1CC#CCO
inactive: SNB-78 > 100 µM | RXF 631 > 100 µM | XF498 > 100 µM | DMS-273 > 100 µM

O=C1OC2C(O)COC2(O)C1(O)Cc1c[nH]c2ccccc12 (stereo not given)
inactive: DLD-1 > 100 µM | SNB-78 > 100 µM | HOP-18 > 100 µM | XF498 > 100 µM | DMS-273 > 100 µM

Cn1ncc2c(Nc3ccc(Cl)cc3)c3ccccc3nc21
inactive: DLD-1 11.2 µM | SNB-78 24.4 µM | HOP-18 22.3 µM | RXF 631 13.1 µM | XF498 > 10 µM | DMS-273 15.2 µM

Cc1cccc(C(C)C)c1NC(=O)C(=O)C(C(=O)c1ccccc1F)C1OC(=O)c2ccccc21 (stereo not given)
inactive: DLD-1 14.8 µM | HOP-18 3.59 µM | RXF 631 18.6 µM | XF498 10.4 µM | DMS-273 19 µM

COc1ccc2c(c1)[n+]([O-])c(C(=O)C/C(=N/NC(=O)c1ccccc1O)C(=O)Nc1ccc(Cl)c(C(F)(F)F)c1)c(C)[n+]2[O-]
inactive: DLD-1 37.4 µM | SNB-78 > 100 µM | HOP-18 32.6 µM | XF498 > 100 µM | DMS-273 49.9 µM

COC(=O)c1nc(NN)cc(O)c1CCCCCc1c(O)nc(NN)nc1C(=O)OC
inactive: DLD-1 > 100 µM | SNB-78 > 100 µM | HOP-18 > 100 µM | XF498 > 100 µM | DMS-273 > 100 µM

CC(C)(C)[Si](Nc1ccccc1)(c1ccccc1)c1ccccc1
inactive: SNB-78 16.4 µM | HOP-18 13.7 µM | RXF 631 15.5 µM | XF498 14.6 µM | DMS-273 13.6 µM

C#Cc1cccc(N2C(=O)CCC2=O)c1
inactive: DLD-1 17.9 µM | T47D 18.9 µM | MDA-N 14.2 µM | SNB-78 18.5 µM | HOP-18 16.7 µM | RXF 631 21.5 µM | BT-549 > 10 µM | XF498 15 µM | DMS-273 23.2 µM

Clc1cccc(Cl)c1C1SCc2nc3ccccc3n21 (stereo not given)
inactive: DLD-1 51.1 µM | SNB-78 > 100 µM | HOP-18 > 100 µM | RXF 631 15.4 µM | XF498 > 100 µM | DMS-273 14.6 µM
